Columns and labels:
yellow nutsedge = assay: Test C pre-/postemergence test; assay type: in vivo, Cyperus esculentus
Outline: (§1)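 Test chemicals were formulated with surfactant in a non-phytotoxic solvent and sprayed both on freshly planted seeds (preemergence) and on 1- to 4-leaf plants of 2–18 cm (postemergence). Flooded-paddy pots received compound directly into 3 cm of standing water, maintained for the test.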

wheat = assay: Test C pre-/postemergence test; assay type: in vivo, Triticum aestivum
Outline: as §1

soybean = assay: Test C pre-/postemergence test; assay type: in vivo, Glycine max
Outline: as §1

corn = assay: Test C pre-/postemergence test; assay type: in vivo, Zea mays
Outline: as §1

cocklebur = assay: Test C pre-/postemergence test; assay type: in vivo, Xanthium strumarium
Outline: as §1

barnyardgrass = assay: Test A pre-/postemergence greenhouse test; assay type: in vivo, Echinochloa crus-galli; details: for Plant response rating, Barnyardgrass: 0 to 100 scale where 0 is no effect and 100 is complete control; for Barnyardgrass plant response rating: 0 to 100 scale
Outline: (§2)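 Two application timings were run side by side in the greenhouse. Before emergence, compound went onto the soil surface of loam–sand pots as a directed spray; after emergence, plants at 2–10 cm and the one- to two-leaf stage were treated. Visual injury versus controls was rated at approximately day ten.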

crabgrass = assay: Test C pre-/postemergence test; assay type: in vivo, Digitaria sanguinalis
Outline: as §1

green foxtail = assay: Test C pre-/postemergence test; assay type: in vivo, Setaria viridis
Outline: as §1

blackgrass = assay: Test C pre-/postemergence test; assay type: in vivo, Alopecurus myosuroides
Outline: as §1

pigweed = assay: Test C pre-/postemergence test; assay type: in vivo, Amaranthus retroflexus; details: for Pigweed plant response rating: preemergence, scale 0 (no effect) to 100 (complete control); for Plant response rating (0 to 100), Pigweed / Plant response rating, Pigweed: Postemergence; for Plant response rating, Pigweed: scale 0 to 100, 0 no effect, 100 complete control
Outline: as §1

kochia = assay: Test C pre-/postemergence test; assay type: in vivo, Kochia scoparia
Outline: as §1

morningglory [1] = assay: Test A pre-/postemergence greenhouse test; assay type: in vivo, Ipomoea spp.; details: for Plant response rating, Morningglory: 0 to 100 scale where 0 is no effect and 100 is complete control; for Morningglory plant response rating: 0 to 100 scale
Outline: as §2

woolly cupgrass = assay: Test C pre-/postemergence test; assay type: in vivo, Eriochloa villosa
Outline: as §1

Italian ryegrass = assay: Test C pre-/postemergence test; assay type: in vivo, Lolium multiflorum
Outline: as §1

umbrella sedge = assay: Test C flooded paddy test; assay type: in vivo, Cyperus difformis; details: Flood
Outline: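 Flooded 3 cm over soil; compound into paddy water; depth kept constant. Greenhouse 13–15 d.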

[2] = system: common (oilseed) sunflower; assay: Test C pre-/postemergence test; assay type: in vivo, Helianthus annuus
Outline: as §1

morningglory [3] = assay: Test C pre-/postemergence test; assay type: in vivo, Ipomoea coccinea
Outline: as §1

[4] = 62 g ai/ha, Preemergence, scale 0 to 100
[5] = 125 g ai/ha, preemergence, scale 0 (no effect) to 100 (complete control)
[6] = Postemergence, 125 g ai/ha, scale 0 to 100, 0 no effect, 100 complete control
[7] = Postemergence, 250 g ai/ha, scale 0 to 100, 0 no effect, 100 complete control
[8] = Preemergence, 31 g ai/ha, scale 0 to 100 (0 no effect, 100 complete control)
[9] = preemergence, 250 g ai/ha, scale 0 (no effect) to 100 (complete control)
[10] = Postemergence, 500 g ai/ha, 0 is no effect, 100 is complete control
[11] = Preemergence, 125 g ai/ha, 0 no effect, 100 complete control

Cn1nc(C(F)(F)C(F)(F)F)c(C[S+]([O-])c2cccc[n+]2[O-])c1OCC(F)(F)F (stereo not drawn) [Compound 79]
Nutsedge, Yellow plant response rating (yellow nutsedge; [4]): 75 | Nutsedge, Yellow plant response rating (yellow nutsedge; [5]): 90 | Plant response rating (0 to 100), Nutsedge, Yellow (yellow nutsedge; Postemergence, 31 g ai/ha): 0 | Plant response rating (0 to 100), Nutsedge, Yellow (yellow nutsedge; Postemergence, 62 g ai/ha): 0 | Plant response rating, Nutsedge, Yellow (yellow nutsedge; [6]): 0 | Plant response rating, Nutsedge, Yellow (yellow nutsedge; [7]): 10 | Plant response rating, Nutsedge, Yellow (yellow nutsedge; [8]): 0 | Nutsedge, Yellow plant response rating (yellow nutsedge; [9]): 100 | Wheat plant response rating (wheat; [4]): 10 | Wheat plant response rating (wheat; [5]): 60 | Plant response rating (0 to 100), Wheat (wheat; Postemergence, 31 g ai/ha): 0 | Plant response rating (0 to 100), Wheat (wheat; Postemergence, 62 g ai/ha): 30 | Plant response rating, Wheat (wheat; [6]): 60 | Plant response rating, Wheat (wheat; [7]): 80 | Plant response rating, Wheat (wheat; [8]): 10 | Wheat plant response rating (wheat; [9]): 80 | Soybean plant response rating (soybean; [4]): 60 | Plant response rating (0 to 100), Soybean (soybean; Postemergence, 31 g ai/ha): 50 | Plant response rating (0 to 100), Soybean (soybean; Postemergence, 62 g ai/ha): 55 | Plant response rating, Soybean (soybean; [6]): 60 | Plant response rating, Soybean (soybean; [8]): 60 | Soybean plant response rating (soybean; [9]): 80 | Corn plant response rating (corn; [4]): 100 | Corn plant response rating (corn; [5]): 100 | Plant response rating (0 to 100), Corn (corn; Postemergence, 31 g ai/ha): 0 | Plant response rating (0 to 100), Corn (corn; Postemergence, 62 g ai/ha): 25 | Plant response rating, Corn (corn; [6]): 60 | Plant response rating, Corn (corn; [7]): 60 | Plant response rating, Corn (corn; [8]): 60 | Corn plant response rating (corn; [9]): 100 | Cocklebur plant response rating (cocklebur; [4]): 0 | Cocklebur plant response rating (cocklebur; [5]): 50 | Plant response rating (0 to 100), Cocklebur (cocklebur; Postemergence, 31 g ai/ha): 0 | Plant response rating (0 to 100), Cocklebur (cocklebur; Postemergence, 62 g ai/ha): 0 | Plant response rating, Cocklebur (cocklebur; [6]): 0 | Plant response rating, Cocklebur (cocklebur; [7]): 0 | Plant response rating, Cocklebur (cocklebur; [8]): 0 | Cocklebur plant response rating (cocklebur; [9]): 50 | Plant response rating, Barnyardgrass (barnyardgrass; Postemergence, 125 g ai/ha): 80 | Barnyardgrass plant response rating (barnyardgrass; [10]): 90 | Barnyardgrass plant response rating (barnyardgrass; [11]): 100 | Plant response rating, Barnyardgrass (barnyardgrass; Preemergence, 500 g ai/ha): 100 | Crabgrass, Large plant response rating (crabgrass; [4]): 80 | Crabgrass, Large plant response rating (crabgrass; [5]): 100 | Plant response rating (0 to 100), Crabgrass, Large (crabgrass; Postemergence, 31 g ai/ha): 0 | Plant response rating (0 to 100), Crabgrass, Large (crabgrass; Postemergence, 62 g ai/ha): 0 | Plant response rating, Crabgrass, Large (crabgrass; [6]): 0 | Plant response rating, Crabgrass, Large (crabgrass; [7]): 50 | Plant response rating, Crabgrass, Large (crabgrass; [8]): 40 | Crabgrass, Large plant response rating (crabgrass; [9]): 100 | Foxtail, Green plant response rating (green foxtail; [4]): 85 | Foxtail, Green plant response rating (green foxtail; [5]): 100 | Plant response rating (0 to 100), Foxtail, Green (green foxtail; Postemergence, 31 g ai/ha): 0 | Plant response rating (0 to 100), Foxtail, Green (green foxtail; Postemergence, 62 g ai/ha): 60 | Plant response rating, Foxtail, Green (green foxtail; [6]): 70 | Plant response rating, Foxtail, Green (green foxtail; [7]): 85 | Plant response rating, Foxtail, Green (green foxtail; [8]): 65 | Foxtail, Green plant response rating (green foxtail; [9]): 100 | Blackgrass plant response rating (blackgrass; [4]): 100 | Blackgrass plant response rating (blackgrass; [5]): 100 | Plant response rating (0 to 100), Blackgrass (blackgrass; Postemergence, 31 g ai/ha): 70 | Plant response rating (0 to 100), Blackgrass (blackgrass; Postemergence, 62 g ai/ha): 80 | Plant response rating, Blackgrass (blackgrass; [6]): 90 | Plant response rating, Blackgrass (blackgrass; [7]): 90 | Plant response rating, Blackgrass (blackgrass; [8]): 98 | Blackgrass plant response rating (blackgrass; [9]): 100 | Pigweed plant response rating (pigweed; 125 g ai/ha): 70 | Plant response rating (0 to 100), Pigweed (pigweed; 31 g ai/ha): 0 | Plant response rating (0 to 100), Pigweed (pigweed; 62 g ai/ha): 0 | Plant response rating, Pigweed (pigweed; 125 g ai/ha): 20 | Plant response rating, Pigweed (pigweed; 250 g ai/ha): 60 | Pigweed plant response rating (pigweed; 250 g ai/ha): 100 | Kochia plant response rating (kochia; [4]): 100 | Kochia plant response rating (kochia; [5]): 100 | Plant response rating (0 to 100), Kochia (kochia; Postemergence, 31 g ai/ha): 0 | Plant response rating (0 to 100), Kochia (kochia; Postemergence, 62 g ai/ha): 0 | Plant response rating, Kochia (kochia; [6]): 0 | Plant response rating, Kochia (kochia; [7]): 0 | Plant response rating, Kochia (kochia; [8]): 100 | Kochia plant response rating (kochia; [9]): 100 | Plant response rating, Morningglory (morningglory [1]; Postemergence, 125 g ai/ha): 50 | Morningglory plant response rating (morningglory [1]; [10]): 100 | Morningglory plant response rating (morningglory [1]; [11]): 60 | Plant response rating, Morningglory (morningglory [1]; Preemergence, 500 g ai/ha): 90 | Cupgrass, Woolly plant response rating (woolly cupgrass; [4]): 50 | Cupgrass, Woolly plant response rating (woolly cupgrass; [5]): 98 | Plant response rating (0 to 100), Cupgrass, Woolly (woolly cupgrass; Postemergence, 31 g ai/ha): 0 | Plant response rating (0 to 100), Cupgrass, Woolly (woolly cupgrass; Postemergence, 62 g ai/ha): 0 | Plant response rating, Cupgrass, Woolly (woolly cupgrass; [6]): 40 | Plant response rating, Cupgrass, Woolly (woolly cupgrass; [7]): 50 | Plant response rating, Cupgrass, Woolly (woolly cupgrass; [8]): 0 | Cupgrass, Woolly plant response rating (woolly cupgrass; [9]): 100 | Ryegrass, Italian plant response rating (Italian ryegrass; [4]): 60 | Ryegrass, Italian plant response rating (Italian ryegrass; [5]): 100 | Plant response rating (0 to 100), Ryegrass, Italian (Italian ryegrass; Postemergence, 31 g ai/ha): 0 | Plant response rating (0 to 100), Ryegrass, Italian (Italian ryegrass; Postemergence, 62 g ai/ha): 40 | Plant response rating, Ryegrass, Italian (Italian ryegrass; [6]): 60 | Plant response rating, Ryegrass, Italian (Italian ryegrass; [7]): 100 | Plant response rating, Ryegrass, Italian (Italian ryegrass; [8]): 40 | Ryegrass, Italian plant response rating (Italian ryegrass; [9]): 100 | Plant response rating, Sedge, Umbrella (umbrella sedge; 62 g ai/ha, scale 0 to 100 (0 no effect, 100 complete control)): 90 | Plant response rating, Sedge, Umbrella (umbrella sedge; 250 g ai/ha, scale 0 to 100, 0 no effect, 100 complete control, 13 to 15 days): 100 | Sunflower plant response rating [2, 4]: 60 | Sunflower plant response rating [2, 5]: 100 | Plant response rating, Sunflower [2, 8]: 40 | Sunflower plant response rating [2, 9]: 100 | Morningglory plant response rating (morningglory [3]; [4]): 100 | Morningglory plant response rating (morningglory [3]; [5]): 100 | Plant response rating (0 to 100), Morningglory (morningglory [3]; Postemergence, 31 g ai/ha): 0 | Plant response rating (0 to 100), Morningglory (morningglory [3]; Postemergence, 62 g ai/ha): 0 | Plant response rating, Morningglory (morningglory [3]; [6]): 0 | Plant response rating, Morningglory (morningglory [3]; [7]): 0 | Plant response rating, Morningglory (morningglory [3]; [8]): 60 | Morningglory plant response rating (morningglory [3]; [9]): 100
